Our source for the IC50 values is PubChem BioAssay AID1645865 (Buhrlage Lab, Dana-Farber Cancer Institute and Novartis …, 2021).

One may read the IC50 as the concentration needed to halve the response being measured.

Active and inactive are the calls of the source.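 Rule for the calls: active = maximal inhibition of the USP30 enzyme reaching 30% or more across the dose series; inactive = the rest.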 Where only a bound is given, the exact number is not on record here.

For this assay, the target named is Ubiquitin carboxyl-terminal hydrolase 30 (Homo sapiens) (UniProt Q70CQ3). Description: ubiquitin-specific protease 30 DUB inhibitors, concentration-effect, biochemical, validation of primary actives (AID 1645865). The following applies: purified USP30, Ub-rhodamine cleavage, fluorescence, 2 h.
Chain of Ubiquitin carboxyl-terminal hydrolase 30 (Homo sapiens) (Q70CQ3 whole entry, looked up): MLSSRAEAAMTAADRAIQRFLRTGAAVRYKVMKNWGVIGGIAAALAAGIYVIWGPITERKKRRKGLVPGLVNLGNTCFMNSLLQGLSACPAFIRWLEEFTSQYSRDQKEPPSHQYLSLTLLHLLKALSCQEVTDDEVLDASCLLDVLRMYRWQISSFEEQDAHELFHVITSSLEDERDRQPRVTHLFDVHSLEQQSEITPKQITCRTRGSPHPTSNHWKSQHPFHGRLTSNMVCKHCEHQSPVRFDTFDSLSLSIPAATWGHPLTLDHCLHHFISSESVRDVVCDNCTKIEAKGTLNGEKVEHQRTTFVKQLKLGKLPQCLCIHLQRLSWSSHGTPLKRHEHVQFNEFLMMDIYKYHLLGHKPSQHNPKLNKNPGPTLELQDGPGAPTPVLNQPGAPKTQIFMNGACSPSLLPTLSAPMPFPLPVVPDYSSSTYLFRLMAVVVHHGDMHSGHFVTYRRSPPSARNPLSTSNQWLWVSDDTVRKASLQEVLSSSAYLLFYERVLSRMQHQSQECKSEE

As for `O=C(Nc1nc2ccccc2s1)c1ccc2c(c1)C(=O)N(Cc1cccnc1)C2=O`, the IC50 is 2.19 µM.

As for `COc1ccc(NC(=O)CN2C(=O)c3ccccc3Sc3ccc(C(=O)N4CCCC4)cc32)c(OC)c1`, the IC50 was > 50 µM (inactive).

On to `CCOc1ccc(NC(=O)Cn2c(=O)n(CCC(=O)NCc3ccco3)c(=O)c3ccccc32)cc1`, for which the IC50 was 4.08 µM.

Turning to `COc1ccccc1CNC(=O)CCCn1c(=O)c2ccccc2n(CC(=O)N2CCN(c3ccccc3)CC2)c1=O`, the IC50 was 34.8 µM.

As to `COc1ccccc1OCc1ccc(C(=O)Nc2ccc(F)cc2C)cc1`, the IC50 is 28.3 µM.

With `Cc1sc2nc(CN3CCCC3)nc(NCCc3ccc(Cl)cc3)c2c1C`, the IC50 is > 50 µM (inactive).

Take `COc1ccc2nc(Nc3ncc4c(n3)CCCC4=O)nc(C)c2c1`: the IC50 was > 50 µM (inactive).

Turning to `c1coc(CNc2nc(Nc3cccc4ccccc34)nc3ccccc23)c1`, the IC50 is > 50 µM (inactive).

Regarding `COCCNC(=O)c1ccn(-c2ccc3ccc(-c4cnn(C)c4)cn23)n1`, the IC50 is > 50 µM (inactive).

`O=S(=O)(Nc1ccc(O)cc1)c1ccc2oc3ccc(S(=O)(=O)Nc4ccc(O)cc4)cc3c2c1`: the half-maximal inhibitory concentration (IC50) was 26.5 µM.

In the case of `Cc1cc(=O)n(C)c2c(O)c3c(cc12)c(C)cc(=O)n3C`, the IC50 is > 50 µM (inactive).

With `CCOC(=O)c1ccc(NC(=O)Cn2c(=O)n(CC(=O)NCCc3ccc(OC)c(OC)c3)c(=O)c3sccc32)cc1`, the IC50 was 1.57 µM.

As for `CC(C)C1Cc2c(sc3nc(SCC(=O)Nc4cccc5ccccc45)nc(N)c23)CO1` (stereo not given), the IC50 was > 50 µM (inactive).

`COCCn1ccc2nc(C)c(C(=O)Nc3ccc4c(c3)OCCO4)cc2c1=O`: the IC50 was 45.2 µM.

As for `Nc1c(C(=O)Nc2ccc3c(c2)OCO3)sc2nc(-c3cccnc3)ccc12`, the IC50 is 0.545 µM.

As to `Cc1ccc(CNC(=O)c2cnc3ccccc3n2)cc1`, the IC50 was > 50 µM (inactive).

For `O=C(CCCCn1c(=O)c2ccccc2n(Cc2ccccc2F)c1=O)NCCc1ccccc1`, the IC50 was 8.13 µM.

As for `Cc1ccccc1-c1nc(CN(C)S(=O)(=O)c2ccccc2)c(C)o1`, the IC50 is 35.8 µM.

In the case of `COC(=O)c1ccccc1NC(=O)CSc1nnc(-c2ccc(C(C)(C)C)cc2)n1C1CCCC1`, the IC50 is 33.8 µM.

In the case of `Cc1cc2nc(Oc3cccc(Cl)c3)c3ccccc3n2n1`, the IC50 is 2.04 µM.

In the case of `Nc1ccc(F)c(NS(=O)(=O)c2ccccc2)c1`, the IC50 is > 50 µM (inactive).

Turning to `COc1ccc(NC(=O)c2ccccc2OCC(=O)Nc2ccccc2C(F)(F)F)c(C)c1`, the IC50 was 28.8 µM.

`O=C(c1cn(-c2cccc(F)c2)nn1)N1CCc2ccccc2C1`: the IC50 is 16.9 µM.

With `O=C(Nc1ccc(Cl)cc1)Nc1cccn2ncnc12`, the IC50 was 18.7 µM.

On to `Fc1ccccc1N1CCN(c2ncc3c(n2)CCN(Cc2ccccn2)C3)CC1`, for which the IC50 is > 50 µM (inactive).

With `CCC(C)Oc1cccc(C(=O)Nc2ccc(CN3CCOCC3)cc2)c1` (stereo not given), the IC50 was > 50 µM (inactive).

For the compound `Cc1cccc(NC(=O)Cn2cnc(-c3noc(-c4ccccc4)n3)c2)c1C`, the IC50 is 1.24 µM.

Turning to `Cc1cccc(O)c1-c1nc2c(-c3nc4c(C(=O)O)cccc4o3)cccc2o1`, the IC50 was > 50 µM (inactive).

As for `O=C(Nc1ccc(Br)cn1)c1nc2ccccc2nc1N1CCCCC1`, the IC50 is > 50 µM (inactive).

As for `O=C(CNC(=O)c1cccc(F)c1)Nc1nc2ccccc2[nH]1`, the IC50 is 21.7 µM.

In the case of `COc1cccc(C(=O)Oc2ccc3c(=O)c(-c4ccc(OC)c(OC)c4)coc3c2)c1`, the IC50 is 0.152 µM.

Take `O=C(c1ccc2cc[nH]c2c1)N1CCC(Nc2cccnc2)C1` (stereo not given): the IC50 was > 50 µM (inactive).

Regarding `Cc1cc(NC(=O)c2nnn(-c3ccccc3Cl)c2C)no1`, the IC50 is > 50 µM (inactive).

In the case of `Cc1ccc(NC(=O)c2ccc(N3CCOCC3)nn2)cc1F`, the IC50 was 39.7 µM.

As for `COc1ccc(OC)c(NC(=O)c2cc(Cl)ccc2OC)c1`, the IC50 was 1.59 µM.

Take `CSc1nc2ncn(CC(=O)Nc3cccc(Cl)c3)c(=O)c2s1`: the IC50 was 4.75 µM.

Turning to `O=C(Nc1cccc(Cl)c1)N1CCC(c2cc(-c3ccco3)n[nH]2)CC1`, the IC50 is > 50 µM (inactive).

Turning to `O=C(COc1nsnc1N1CCOCC1)Nc1ccc(F)c(F)c1`, the IC50 was > 50 µM (inactive).

On to `Cc1cc(NC(=O)c2cc(-c3cccnc3)n[nH]2)ccc1Br`, for which the IC50 is 1.26 µM.

On to `O=C(Cn1nnc(-c2ccc(F)cc2)n1)NCCc1ccccc1`, for which the IC50 is > 50 µM (inactive).

For the compound `Cc1ccc(-c2noc(-c3nnc(SCC(=O)NC4CCCC4)n3C)n2)cc1`, the IC50 was 2.22 µM.

For the compound `O=C(NCc1ccccc1Cl)c1ccc2cn[nH]c2c1`, the IC50 is > 50 µM (inactive).

`COc1ccc(-n2c(SCC(=O)c3ccc(F)cc3)nnc2-c2cccnc2)cc1`: the IC50 is 21.9 µM.

`CCCC1Cc2c(sc3nc(SCC)nc(N)c23)CO1` (stereo not given): the IC50 was 13.8 µM.

Consider `CC(C)CCN1C(=O)C2C(C(=O)Nc3ccc(Oc4ccccc4)cc3)C3C=CC2(O3)C1C(=O)NC1CCCCC1` (stereo not given), for which the IC50 is 32.5 µM.

`Cc1c(C)n(-c2ccccc2)c2ncn(CC(=O)NC(C)c3ccccc3)c(=O)c12` (stereo not given): the IC50 was 23 µM.

On to `O=c1c(Nc2cccc(F)c2)nc2ccncc2n1Cc1ccccc1`, for which the IC50 was 26.4 µM.

Consider `Oc1ccc(-c2nc3cnccn3c2NCCc2ccccc2)c(O)c1`, for which the IC50 was > 50 µM (inactive).

For `O=c1c(-c2nc(C3CC3)no2)cccn1Cc1c(F)cccc1Cl`, the IC50 was > 50 µM (inactive).

Regarding `COc1ccc(CNC(=O)CCc2nc3sc4c(c3c(=O)[nH]2)CCCCC4)cc1`, the IC50 was > 50 µM (inactive).

Take `COc1ccccc1CNC(=O)c1c(O)c2cnn(-c3cccc(C)c3)c2[nH]c1=O`: the IC50 was > 50 µM (inactive).

In the case of `COc1ccc(OC)c(-c2c(C#N)c(C)nc3c2N2CCC3CC2)c1`, the IC50 was 24.1 µM.

For `c1ccc2c(Cc3nc(-c4ccncc4)no3)cccc2c1`, the IC50 is > 50 µM (inactive).

`Cc1cc(O)c2c3c(c(O)c4c(c13)O[C@@H](C)C4(C)C)C(=O)C2=O`: the IC50 is 35.1 µM.

For `Cc1cccc2sc(NC(=O)c3nnn(-c4ccc(F)cc4)n3)nc12`, the IC50 is > 50 µM (inactive).

On to `O=C(CNS(=O)(=O)c1ccc(F)cc1)N1CCCC(c2nnc3ccccn23)C1` (stereo not given), for which the IC50 was > 50 µM (inactive).

As to `COc1ccc(-c2cc(-c3nnc(CSc4nc5ccccc5n4C)o3)c3ccccc3n2)cc1OC`, the IC50 is > 50 µM (inactive).

With `CC(=O)c1ccc(NC(=O)CC2C(=O)Nc3nc4ccccc4n32)cc1` (stereo not given), the IC50 is 46.2 µM.

Consider `CCOc1ccc(NC(=O)Cn2c(=O)n(CCCCCC(=O)NCc3ccc(F)cc3)c(=O)c3sccc32)cc1`, for which the IC50 is 1.44 µM.

Take `O=C(c1nnn(Cc2ccc(Cl)cc2)c1-n1cccc1)N1CCCC1`: the IC50 is > 50 µM (inactive).

For the compound `O=C(NCCc1ccccc1)c1nnn(Cc2cccc(Cl)c2)c1-n1cccc1`, the IC50 was > 50 µM (inactive).

In the case of `COc1cccc(N2CCN(C(=O)CCNS(=O)(=O)c3ccc4c(c3)CCC(=O)N4)CC2)c1`, the IC50 is > 50 µM (inactive).

On to `COc1ccc(NC(=O)COc2cc(CSc3ccccc3)ncc2OC)cc1`, for which the IC50 was 25.7 µM.

Regarding `Cc1cccc(OCCn2c(CCNC(=O)C3CCCCC3)nc3ccccc32)c1`, the concentration for half-maximal inhibition (IC50) was 20.2 µM.

Take `CCc1ccc2[nH]c3c(c(=O)c2c1)CN(CC(=O)NCc1ccc2c(c1)OCO2)CC3`: the IC50 was 35.5 µM.

For `O=C(CSc1ncnc2c1oc1ccccc12)Nc1ccc2c(c1)OCCO2`, the IC50 is 18.7 µM.

As to `O=C(Nc1cc(F)c2nc(N3CCOCC3)ccc2c1)C1CC1`, the IC50 is > 50 µM (inactive).

Consider `Oc1ccc(-c2nc3ccc(Cl)cn3c2NC2CCCCC2)cc1`, for which the IC50 was 14.1 µM.

Regarding `CC(=O)c1ccc(NC(=O)CSc2nc(-c3ccccc3)nc3c2COC(C)(C)C3)cc1`, the IC50 is 2.77 µM.

Take `FC(F)(F)c1ccccc1CCN1CCc2nc3ccc(Cl)cc3cc2C1`: the IC50 is > 50 µM (inactive).

`O=c1c(S(=O)(=O)c2cc(F)cc(F)c2)c[nH]c2cc(Cl)ccc12`: the IC50 is 21 µM.

Regarding `Cc1c(C)n(-c2ccc(Br)cn2)c2ncnc(NCCCO)c12`, the IC50 was 25.4 µM.

Consider `Cn1c2ccccc2c2ncn(Cc3ccc(F)cc3)c(=O)c21`, for which the IC50 is 27.3 µM.

As to `CCOc1ccc(S(=O)(=O)Nc2ccc[nH]c2=O)cc1`, the IC50 is > 50 µM (inactive).

Take `O=C(OCc1ccc(F)cc1)c1ccc2ccccc2n1`: the IC50 is > 50 µM (inactive).

For `Cc1cc(C)nc(SCCn2c(N3CCC(Cc4ccccc4)CC3)nc3c2c(=O)n(C)c(=O)n3C)n1`, the IC50 was 46.9 µM.

With `COc1ccccc1NS(=O)(=O)c1cccc(NC(=O)CCc2nc3ccccc3s2)c1`, the IC50 was 4.01 µM.

For the compound `O=C(NCCc1ccco1)c1ccc(N2CCOc3ccccc32)s1`, the IC50 was 27.4 µM.

Take `NC(=O)c1ccc(NC(=O)Cc2cc(-c3ccc(Cl)cc3)on2)cc1`: the IC50 was > 50 µM (inactive).

`O=C(Nc1cccc(Cl)c1)N1CCN(c2cc(C(F)(F)F)ccn2)CC1`: the IC50 is 8.77 µM.

As for `COc1ccc(-c2ocnc2C(=O)Nc2cccc(Cl)c2C)cc1OC`, the IC50 was 45.8 µM.

For the compound `c1ccc(CCN2CCc3nc4cccnc4cc3C2)nc1`, the IC50 was > 50 µM (inactive).

For the compound `CCc1nc(N2CCCC2=O)sc1C(=O)Nc1cccc(C(C)=O)c1`, the IC50 is > 50 µM (inactive).

With `N#Cc1c(Cl)cccc1Oc1ccc(S(=O)(=O)N2CCC(O)CC2)cc1`, the IC50 is 19.6 µM.

As for `CC1CC(=O)Nc2ccccc2N1S(=O)(=O)c1ccc(C#N)cc1` (stereo not given), the IC50 is > 50 µM (inactive).

Turning to `Cc1cc(NC(=O)c2[nH]nc3c2CCc2ccccc2-3)no1`, the IC50 is 4.47 µM.

Regarding `c1coc(CNc2nc3ccccc3n3nnnc23)c1`, the IC50 was > 50 µM (inactive).

For `Fc1ccc(CN2CCc3nc4cccnc4cc3C2)cc1`, the IC50 is > 50 µM (inactive).

As for `CNC(=O)CC1NC(=O)c2csc(n2)-c2ccc(-c3nc(C4=NC(C(=O)N5CCCC5C(N)=O)CO4)cs3)nc2-c2csc(n2)-c2csc(n2)C(C(O)c2ccccc2)NC(=O)CNC(=O)c2nc(sc2COC)C(C(C)C)NC(=O)c2nc1sc2C` (stereo not given), the IC50 was > 50 µM (inactive).

As for `Oc1sc(C=Nc2cc(Cl)ccc2Cl)c2ccccc12`, the IC50 was 0.981 µM.
